Test [1] has as its system CEA-CAR T cells / CEA-expressing human CRC organoids. As to the kind of experiment: CEA-CAR T cells exposed to UA and killing of human CRC organoids. Format: cell-based.
Test [2] concerns aged mice injected with Aβ1-42. As to the kind of experiment: Mouse model of Alzheimer's disease, intrahippocampal injection of Aβ1-42 oligomers. The class given is in vivo. The protocol:
A total of 18-month-old C57BL6 male mice were included in the study (n=12 per group). The animals were housed up to 4 to a cage, in clear polycarbonate cages with a stainless steel mesh lid and floor in a day/night inversed cycle (12 h/12 h). Drinking water and food were supplied ad libitum to each cage. The animals were kept for a period of acclimation of a minimum of 5 days before any handling.
All mice were subjected to surgery and were injected with 2 μL of vehicle or of A 1-42 solution. Aβ1-42 peptide (Bachem) was dissolved in the vehicle, at an initial concentration of 100 μM (the mother preparation was characterized by automatic WB, and precisely contained 15% of AβO). This solution was gently agitated for 3 days at 37° C. in the dark before any use until the day of the surgery.
The Aβ1-42 preparation was bilaterally injected into the […] of the CA1 area of the hippocampus (at three different depths). A total of 2 μL/side of A 1-42 preparation (100 μM), or vehicle, were bilaterally injected with a Hamilton syringe in the CA1 area of the hippocampus (0.2 μL/min with an Elite Nanomite syringe pump).
Vehicle (0.5% carboxy methyl cellulose (CMC)) or 33 at 1 mg/kg/d was administrated daily by gavage (per os: p.o). The treatment started 1 day after the surgery (D+1) and lasted until the end of the study (D+27). The study was stopped 4 weeks after the surgery (on D28).
The week before the surgery, a training session was performed, for habituation (5 minutes) to the maze. Fourteen (14) days after the surgery, mice were tested for short-term memory deficit in the Y-maze test.
The test was based on two trials: • Trial 1. Mice were allowed to freely explore two arms of the Y-maze during 5 min. The third arm remained closed during the trial. At the end of the 5 min, the animal was placed for 3 min in an empty cage. The Y-maze was cleaned with acetic acid to neutralize odors. • Trial 2. Mice were then allowed to freely explore the three arms of the Y-maze during 5 min. This trial corresponds to the test session.
Both trials were recorded by a video camera using Ethovision system (Noldus). The following items were automatically recorded: a) total distance in the Y-maze and b) the time spent in each arm.
At the end of the experiment (on day 28), 5 mice per group were deeply anesthetized and plasma samples were collected. Mice were then perfused with cold PBS (3 minutes), and cold paraformaldehyde (PFA) 4% in PBS (for 3 minutes).
Six (n=6) brain sections per animal were processed and incubated for 24 hours at 4° C. or 2 hours at room temperature with selected antibodies (Abs). The following antibodies were used: • NeuN: Rabbit polyclonal antibody anti-NeuN (1/1000). • Iba1: Rabbit polyclonal antibody anti-Iba1 (1/500). • Tau phospho Ser212/Thr214 (AT100): Mouse monoclonal antibody anti-AT100 (1/200).
Images were acquired with a confocal microscope LSM 900 with Zen software at 20× magnification (Zeiss) using the same acquisition parameters (automatic acquisition). […] The following read-outs were measured: • Number of NeuN positive pyramidal cells in the CA1 area. • Activation of Iba1-positive microglial cells in the CA1 area. • Activation of AT100 positive neurons in the CA1 area.
Results were analyzed using GraphPad Prism software version 8.0.2. *p<0.05 after a One-way or Two-way ANOVA followed by Fisher's test was considered significant.

“Also recorded” adds a separate entry of the source.

For `O=c1oc2cc(O)ccc2c2ccc(O)cc12` [UA, Urolithin A], the “killing of CEA-expressing human CRC organoids” value in test [1] (72 h co-culture) is listed as “comparable killing efficacy”. Besides, the “CAR TSCM formation in CEA-specific CAR-T cells” value in test [1] (UA applied to previously frozen CAR-T cells) is recorded as “strongly enhanced”.
As for `O=c1oc2cc(O)ccc2c2ccc(OC3CCOCC3)cc12` [compound 33, 3-hydroxy-8-((tetrahydro-2H-pyran-4-yl)oxy)-6H-benzo[c]chromen-6-one], the “short-term spatial memory (time in new arm, Y-maze)” value in test [2] (1 mg/kg daily oral, 14 days post-surgery) was “able to prevent; also recorded: beneficial effects”. In addition, in test [2] (1 mg/kg daily, day 1 to day 28), the “AT100 (hyperphosphorylated Tau) in neurons” value is recorded as “decrease”, the “activation of Iba1(+) microglial cells” value was “significantly decrease” and the “survival of NeuN(+) neurons in CA1” value is “significantly improved”. In addition, the “total distance traveled in Y-maze” value in test [2] (1 mg/kg/d p.o., 14 days post-surgery) was “not different between groups”.

For the origin of these results see patent US20240139149A1, “THERAPEUTIC USES OF UROLITHIN DERIVATIVES” (Vandria SA, priority 2022, published 2024).
